Experimental findings from ChEMBL document CHEMBL4699602, “Stapled and Xenopus Glucagon-Like Peptide 1 (GLP-1)-Based Dual GLP-1/Gastrin Receptor Agonists with Improved Metabolic Benefits in Rodent Models of Obesity and Diabetes” (J Med Chem, 2020) are described below.

Where a SMILES comes first, the peptide text is derived from it. [ ]: non-standard residue; d: D form. ξ: configuration not given here. αMeH = C[C@](N)(Cc1c[nH]cn1)C(=O)O; Thr(3ξ) = CC(O)[C@H](N)C(=O)O; Aib = CC(C)(N)C(=O)O

The target of assay [1] is T1, Glucagon-like peptide 1 receptor (Homo sapiens, UniProt P43220). The experiment in a line: Agonist activity at human GLP-1R expressed in HEK293 cells assessed as stimulation of cAMP accumulation incubated for 20 mins in presence of 0% HSA. It is filed as functional, cell-based.
T1 sequence (P43220 whole entry): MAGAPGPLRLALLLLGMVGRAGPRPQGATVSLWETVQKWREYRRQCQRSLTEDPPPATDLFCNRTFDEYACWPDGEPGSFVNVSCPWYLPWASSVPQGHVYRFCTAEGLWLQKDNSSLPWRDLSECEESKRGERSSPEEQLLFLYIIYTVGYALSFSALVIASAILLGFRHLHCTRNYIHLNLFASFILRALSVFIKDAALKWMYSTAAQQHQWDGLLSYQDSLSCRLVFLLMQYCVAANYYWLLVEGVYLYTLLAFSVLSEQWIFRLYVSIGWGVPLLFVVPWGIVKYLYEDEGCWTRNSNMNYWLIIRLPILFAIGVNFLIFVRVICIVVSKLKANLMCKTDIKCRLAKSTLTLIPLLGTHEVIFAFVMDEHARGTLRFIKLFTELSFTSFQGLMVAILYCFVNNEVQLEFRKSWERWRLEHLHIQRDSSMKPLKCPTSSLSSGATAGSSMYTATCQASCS
Assay [2] concerns the target T1, Glucagon-like peptide 1 receptor. The experiment in a line: Agonist activity at human GLP-1R expressed in HEK293 cells assessed as stimulation of cAMP accumulation incubated for 20 mins in presence of 4.4% HSA. It is filed as functional, cell-based.
For assay [3] the target is unchanged. The experiment in a line: Ratio of EC50 for agonist activity at human GLP-1R expressed in HEK293 cells in presence of 4.4% HSA to EC50 for agonist activity at human GLP-1R expressed in HEK293 cells in presence of 0% HSA. It is filed as cell-based.
Assay [4] shares this target. The experiment in a line: Agonist activity at human GLP-1R expressed in HEK293 cells assessed as stimulation of cAMP accumulation incubated for 20 mins. In kind it is functional, cell-based.

In the case of `CC[C@H](C)[C@H](NC(=O)[C@H](CC(C)C)NC(=O)[C@H](Cc1c[nH]c2ccccc12)NC(=O)[C@H](CCC(=O)O)NC(=O)[C@@H](NC(=O)[C@H](Cc1ccccc1)NC(=O)[C@@H]1CSC2CC(=O)N(CCC(=O)NC(C(=O)NCCCCCCNC(=O)COCCOCCNC(=O)CCC(NC(=O)CCCCCCCCCCCCCCCCC(=O)O)C(=O)O)CCCCNC(=O)CCN3C(=O)CC(SC[C@H](NC(=O)[C@H](Cc4ccc(O)cc4)NC(=O)[C@H](CCC(=O)O)NC(=O)[C@@H](NC(=O)[C@@H](NC(=O)[C@H](CC(=O)O)NC(=O)[C@H](CC(N)=O)NC(=O)[C@@H](NC(=O)[C@H](Cc4ccc(O)cc4)NC(=O)[C@@H](NC(=O)CNC(=O)[C@H](CCC(=O)O)NC(=O)C(C)(C)NC(=O)[C@@H](N)Cc4c[nH]cn4)[C@@H](C)O)[C@@H](C)O)C(C)C)[C@@H](C)O)C(=O)N[C@@H](CCC(=O)O)C(=O)N[C@@H](CCC(=O)O)C(=O)N[C@@H](CCC(=O)O)C(=O)N[C@@H](C)C(=O)N[C@@H](C)C(=O)N[C@@H](CCCCN)C(=O)N1)C3=O)C2=O)[C@@H](C)CC)C(=O)N[C@@H](CCCCN)C(=O)NCC(=O)N[C@@H](CCCCN)C(=O)N1CCC[C@H]1C(=O)N[C@@H](CO)C(=O)N[C@@H](CO)C(=O)NCC(=O)N[C@@H](C)C(=O)N1CCC[C@H]1C(=O)N1CCC[C@H]1C(=O)N1CCC[C@H]1C(=O)N[C@@H](CO)C(N)=O` (some centres not stated) (HELM PEPTIDE1{H.[Aib].E.G.T.Y.T.N.D.V.T.E.Y.C.E.E.E.A.A.K.C.F.I.E.W.L.I.K.G.K.P.S.S.G.A.P.P.P.S.[am]}|CHEM1{[O=C(O)CCCCCCCCCCCCCCCCC(=O)NC(CCC(=O)NCCOCCOCC(=O)NCCCCCCNC(=O)C(CCCCNC(=O)CCN1C(=O)CC([*:1])C1=O)NC(=O)CCN1C(=O)CC([*:2])C1=O)C(=O)O]}$PEPTIDE1,CHEM1,14:R3-1:R1|PEPTIDE1,CHEM1,21:R3-1:R2$$$V2.0), the EC50 stood at 0.1 nM in assay [1] and 5.9 nM in assay [2]. Besides, in assay [3], the Ratio EC50 turned out to be 59.

Take `CC[C@H](C)[C@H](NC(=O)[C@H](CC(C)C)NC(=O)[C@H](Cc1c[nH]c2ccccc12)NC(=O)[C@H](CCC(=O)O)NC(=O)[C@@H](NC(=O)[C@H](Cc1ccccc1)NC(=O)[C@@H]1CSC2CC(=O)N(CCC(=O)NC(C(=O)NCCCCCCNC(=O)COCCOCCNC(=O)CCCCCCCCCCCCCCCCC(=O)O)CCCCNC(=O)CCN3C(=O)CC(SC[C@H](NC(=O)[C@H](Cc4ccc(O)cc4)NC(=O)[C@H](CCC(=O)O)NC(=O)[C@@H](NC(=O)[C@@H](NC(=O)[C@H](CC(=O)O)NC(=O)[C@H](CC(N)=O)NC(=O)[C@@H](NC(=O)[C@H](Cc4ccc(O)cc4)NC(=O)[C@@H](NC(=O)CNC(=O)[C@H](CCC(=O)O)NC(=O)C(C)(C)NC(=O)[C@@H](N)Cc4c[nH]cn4)[C@@H](C)O)[C@@H](C)O)C(C)C)[C@@H](C)O)C(=O)N[C@@H](CCC(=O)O)C(=O)N[C@@H](CCC(=O)O)C(=O)N[C@@H](CCC(=O)O)C(=O)N[C@@H](C)C(=O)N[C@@H](C)C(=O)N[C@@H](CCCCN)C(=O)N1)C3=O)C2=O)[C@@H](C)CC)C(=O)N[C@@H](CCCCN)C(=O)NCC(=O)N[C@@H](CCCCN)C(=O)N1CCC[C@H]1C(=O)N[C@@H](CO)C(=O)N[C@@H](CO)C(=O)NCC(=O)N[C@@H](C)C(=O)N1CCC[C@H]1C(=O)N1CCC[C@H]1C(=O)N1CCC[C@H]1C(=O)N[C@@H](CO)C(N)=O` (some centres not stated) (HELM PEPTIDE1{H.[Aib].E.G.T.Y.T.N.D.V.T.E.Y.C.E.E.E.A.A.K.C.F.I.E.W.L.I.K.G.K.P.S.S.G.A.P.P.P.S.[am]}|CHEM1{[O=C(O)CCCCCCCCCCCCCCCCC(=O)NCCOCCOCC(=O)NCCCCCCNC(=O)C(CCCCNC(=O)CCN1C(=O)CC([*:1])C1=O)NC(=O)CCN1C(=O)CC([*:2])C1=O]}$PEPTIDE1,CHEM1,14:R3-1:R1|PEPTIDE1,CHEM1,21:R3-1:R2$$$V2.0): the values for the EC50 in assay [1] and in assay [2] were 0.11 nM and 1.3 nM, respectively. Further, the Ratio EC50 in assay [3] was 11.8. For the compound `CCCCCCCCCCCCCCCC(=O)NCCCCCCNC(=O)C1CCCCNC(=O)CCN2C(=O)CC(SC[C@H](NC(=O)[C@H](Cc3ccc(O)cc3)NC(=O)[C@H](CCC(=O)O)NC(=O)[C@@H](NC(=O)[C@@H](NC(=O)[C@H](CC(=O)O)NC(=O)[C@H](CC(N)=O)NC(=O)[C@@H](NC(=O)[C@H](Cc3ccc(O)cc3)NC(=O)[C@@H](NC(=O)CNC(=O)[C@H](CCC(=O)O)NC(=O)C(C)(C)NC(=O)[C@@H](N)Cc3c[nH]cn3)[C@@H](C)O)[C@@H](C)O)C(C)C)[C@@H](C)O)C(=O)N[C@@H](CCC(=O)O)C(=O)N[C@@H](CCC(=O)O)C(=O)N[C@@H](CCC(=O)O)C(=O)N[C@@H](C)C(=O)N[C@@H](C)C(=O)N[C@@H](CCCCN)C(=O)N[C@H](C(=O)N[C@@H](Cc3ccccc3)C(=O)N[C@H](C(=O)N[C@@H](CCC(=O)O)C(=O)N[C@@H](Cc3c[nH]c4ccccc34)C(=O)N[C@@H](CC(C)C)C(=O)N[C@H](C(=O)N[C@@H](CCCCN)C(=O)NCC(=O)N[C@@H](CCCCN)C(N)=O)[C@@H](C)CC)[C@@H](C)CC)CSC3CC(=O)N(CCC(=O)N1)C3=O)C2=O` (some centres not stated) (HELM PEPTIDE1{H.[Aib].E.G.T.Y.T.N.D.V.T.E.Y.C.E.E.E.A.A.K.C.F.I.E.W.L.I.K.G.K.[am]}|CHEM1{[CCCCCCCCCCCCCCCC(=O)NCCCCCCNC(=O)C(CCCCNC(=O)CCN1C(=O)CC([*:1])C1=O)NC(=O)CCN1C(=O)CC([*:2])C1=O]}$PEPTIDE1,CHEM1,14:R3-1:R1|PEPTIDE1,CHEM1,21:R3-1:R2$$$V2.0), the EC50 in assay [1] was determined as 0.098 nM; in assay [2], 1.8 nM. Besides, the Ratio EC50 in assay [3] came out at 18.4. Turning to `CC[C@H](C)[C@H](NC(=O)[C@H](CC(C)C)NC(=O)[C@H](CS)NC(=O)[C@H](CCC(=O)O)NC(=O)[C@@H](NC(=O)[C@H](Cc1ccccc1)NC(=O)[C@H](CCC(=O)O)NC(=O)[C@H](CCCCN)NC(=O)[C@H](C)NC(=O)[C@H](CS)NC(=O)[C@H](CCC(=O)O)NC(=O)[C@H](CCC(=O)O)NC(=O)[C@H](CCC(=O)O)NC(=O)[C@H](CC(C)C)NC(=O)[C@H](Cc1ccc(O)cc1)NC(=O)[C@H](CCC(=O)O)NC(=O)[C@@H](NC(=O)[C@@H](NC(=O)[C@H](CC(=O)O)NC(=O)[C@H](CC(N)=O)NC(=O)[C@@H](NC(=O)[C@H](Cc1ccc(O)cc1)NC(=O)[C@@H](NC(=O)CNC(=O)[C@H](CCC(=O)O)NC(=O)C(C)(C)NC(=O)[C@@H](N)Cc1c[nH]cn1)[C@@H](C)O)[C@@H](C)O)C(C)C)[C@@H](C)O)[C@@H](C)CC)C(=O)N[C@@H](CCCCN)C(=O)NCC(=O)N[C@@H](CCCCN)C(=O)N1CCC[C@H]1C(=O)N[C@@H](CO)C(=O)N[C@@H](CO)C(=O)NCC(=O)N[C@@H](C)C(=O)N1CCC[C@H]1C(=O)N1CCC[C@H]1C(=O)N1CCC[C@H]1C(=O)N[C@@H](CO)C(N)=O` (HELM PEPTIDE1{H.[Aib].E.G.T.Y.T.N.D.V.T.E.Y.L.E.E.E.C.A.K.E.F.I.E.C.L.I.K.G.K.P.S.S.G.A.P.P.P.S.[am]}$$$$V2.0), the EC50 in assay [4] came out at 0.13 nM. Turning to `CC[C@H](C)[C@H](NC(=O)[C@H](CC(C)C)NC(=O)[C@H](CS)NC(=O)[C@H](CCC(=O)O)NC(=O)[C@@H](NC(=O)[C@H](Cc1ccccc1)NC(=O)[C@H](CCC(=O)O)NC(=O)[C@H](CCCCN)NC(=O)[C@H](C)NC(=O)[C@H](CS)NC(=O)[C@H](CCC(=O)O)NC(=O)[C@H](CCC(=O)O)NC(=O)[C@H](CCC(=O)O)NC(=O)[C@H](CC(C)C)NC(=O)[C@H](Cc1ccc(O)cc1)NC(=O)[C@H](CCC(=O)O)NC(=O)[C@@H](NC(=O)[C@@H](NC(=O)[C@H](CC(=O)O)NC(=O)[C@H](CC(N)=O)NC(=O)[C@@H](NC(=O)[C@H](Cc1ccc(O)cc1)NC(=O)[C@@H](NC(=O)CNC(=O)[C@H](CCC(=O)O)NC(=O)C(C)(C)NC(=O)[C@@H](N)Cc1c[nH]cn1)[C@@H](C)O)[C@@H](C)O)C(C)C)[C@@H](C)O)[C@@H](C)CC)C(=O)N[C@@H](CCCCN)C(=O)NCC(=O)N[C@@H](CCCCN)C(N)=O` (HELM PEPTIDE1{H.[Aib].E.G.T.Y.T.N.D.V.T.E.Y.L.E.E.E.C.A.K.E.F.I.E.C.L.I.K.G.K.[am]}$$$$V2.0), the concentration giving a half-maximal response (EC50) in assay [4] is 0.33 nM. For “H-H[Aib]EGTYTNDVCEYLEEECAKEFIEWLIKGKPSSGAPPSKKKKKK-NH2 (cysteines drawn unpaired)”, in assay [4], the EC50 is 0.13 nM. As to “H-H[Aib]EGTYTNDVTECLEEEAACEFIEWLIKGKPSSGAPPSKKKKKK-NH2 (cysteines drawn unpaired)”, in assay [4], the EC50 was found to be 0.16 nM.

Take “H-H[Aib]EGTYTNDVTEYLCEEAAKECIEWLIKGKPSSGAPPSKKKKKK-NH2 (cysteines drawn unpaired)”: in assay [4], the EC50 was 0.17 nM. Regarding “H-H[Aib]EGTYTNDVTEYLECEAAKEFCEWLIKGKPSSGAPPSKKKKKK-NH2 (cysteines drawn unpaired)”, the EC50 in assay [4] is 0.12 nM. Turning to “H-H[Aib]EGTYTNDVTEYLEEEAACEFIEWLCKGKPSSGAPPSKKKKKK-NH2 (cysteines drawn unpaired)”, the EC50 in assay [4] was 0.23 nM. In the case of “H-H[Aib]EGTYTNDVTEYLEEEAAKECIEWLIKCKPSSGAPPSKKKKKK-NH2 (cysteines drawn unpaired)”, the half-maximal effective concentration (EC50) in assay [4] was 0.13 nM. For the compound “H-H[Aib]EGTYTNDVTEYLEEEACKEFIEWCIKGKPSSGAPPSKKKKKK-NH2 (cysteines drawn unpaired)”, the EC50 in assay [4] stood at 0.15 nM. Still for that read-out and setting: with “H-H[Aib]EGTYTNDVTEYLEEECAKEFIECLIKGKPSSGAPPSKKKKKK-NH2 (cysteines drawn unpaired)” the figure was 0.1 nM. Still for that read-out and setting: with “H-H[Aib]EGTY[Thr(3ξ)]NDV[Thr(3ξ)]EYLEECAAKEFICWLIKGKPSSGAPPSKKKKKK-NH2 (cysteines drawn unpaired)” the figure was 0.073 nM; with “H-H[Aib]EG[Thr(3ξ)]YTNDVTEYLEEEAAKEFCEWLIKGCPSSGAPPSKKKKKK-NH2 (cysteines drawn unpaired)”, 0.23 nM; with “H-[αMeH]AEGTYTNDVTCYLEEEACKEFIEWLIKGKPSSGAPPSKKKKKK-NH2 (cysteines drawn unpaired)”, 0.11 nM.
